{
  "source": "patent US8828696B2",
  "about": "“Use of Penicillin G Procaine as a selective antimicrobial agent in the production of alcohol by fermentation” (Lallemand Specialites, Inc, priority 2008, dated 2014)",
  "key": {"[1]": {"system": "contaminating bacteria", "test": "Alcohol production plant trial, fermentor drop data (50 m/g/y dry grind, corn)", "assay_type": "cell-based", "conditions": "0.5 ppm", "protocol": "This trial was conducted at a 50 million gallon per year (m/g/y) dry grind fuel alcohol production facility utilizing corn as a fermentation substrate. Batch yeast propagation and fermentation process were utilized. Antimicrobials were added to the fermentor during the fill cycle at approximately 30% fill.\nNo other changes were made to the process or chemical additions that would influence the fermentation kinetics monitored during 3 sets of fermentor batches listed below. The fermentation data was accumulated at the end (drop) of the fermentation process for each of the fermentors. Fermentation kinetics was measured for three batch cycles including:\nSet 1—“Pre Penicillin G Procaine trial”-10 fermentor batches using a level of 0.5 ppm Virginiamycin. See results in Table 2.\nSet 2—“Penicillin G Procaine trial”-10 fermentor batches using a level of 0.5 ppm of Penicillin G Procaine. See results in Table 3.\nSet 3—“Post Penicillin G Procaine trial”-10 fermentor batches using a level of 0.5 ppm of Virginiamycin. See results in Table 4."}, "[2]": {"system": "Lactobacillus fermentum", "test": "Comparative efficacy analysis Virginiamycin vs. Penicillin G Procaine, growth in MRS broth, 24 well plate", "assay_type": "cell-based", "from_the_text": "The most commonly found microorganism in fuel ethanol producing plants is the Lactobacillus fermentum bacterium and is considered as an “industry normal” bacterium. This example compares the use of a Bactenix® line of products, Penicillin G Procaine-antibiotic versus Virginiamycin-antibiotic to control “industry normal” Lactobacillus fermentum bacterium. This trial uses an alcohol water mixture to assure total dissolving of antibiotics. This assures that the correct concentrations of antibiotics are going into the test wells and thereby preventing under dosing during the trial. All bacteria tested were industry specific isolates that were obtained from actual corn mash samples from fermentation alcohol production plants. The trial was set up as follows: • 1. Dissolve 0.1 g of each of the antibiotics in 1 ml water and then add 5 ml of ethanol, vortex and bring up to 10 ml with sterile water to from a suspension. • 2. Dilute the previous suspension 1:10 with sterile water. This gives a one mg/ml concentration. • 3. Filter the suspension by running through a 0.2 μm syringe filter. • 4. Add four μl broth in a centrifuge then add antibiotics to MRS (DeMan, Rogosa and Sharpe) broth at the concentrations required for the test. • 5. Take four μl of a fresh 24-hour culture of the target organisms and add to the corresponding empty wells in a pre-labeled 24 well tissue culture plate. • 6. Pipette one ml of the appropriate antibiotic media to each well of the plate. • 7. Incubate at 33° C. for 24 hours. • 8. Read plates for bacterial growth and re-incubate the plates at 33° C. • 9. After 48 hours read and report the final results."}, "[3]": {"conditions": "Set 1 'Pre Penicillin G Procaine trial', 10 Batch average"}, "[4]": {"conditions": "Set 1 'Pre Penicillin G Procaine trial', drop data, single fermentor batch"}, "[5]": {"conditions": "Set 3 'Post Penicillin G Procaine trial', 10 Batch average"}, "[6]": {"conditions": "Set 3 'Post Penicillin G Procaine trial', drop data, single fermentor batch"}},
  "note": "Several values for one entry are separate records, joined by “and”; a condition that tells them apart may be missing. Equal values may be shown once.",
  "data": [
    {"substance": "Virginiamycin", "values": [
      {"measurement": "Acetic %", "setting": "[1]; [3]", "value": 0.04, "unit": "%"},
      {"measurement": "EtOH v/v %", "setting": "[1]; [3]", "value": 15.48, "unit": "v/v %"},
      {"measurement": "Glucose %", "setting": "[1]; [3]", "value": 0.29, "unit": "%"},
      {"measurement": "Lactic %", "setting": "[1]; [3]", "value": 0.64, "unit": "%"},
      {"measurement": "Acetic %", "setting": "[1]; [4]", "value": "0.02% and 0.04% and 0.13% and 0.03%"},
      {"measurement": "Glucose %", "setting": "[1]; [4]", "value": "0.36% and 0.27% and 0.26% and 0.31% and 0.29% and 0.3% and 0.16%"},
      {"measurement": "Lactic %", "setting": "[1]; [4]", "value": "0.59% and 0.71% and 0.85% and 0.56% and 0.79% and 0.584% and 0.41%"},
      {"measurement": "Acetic %", "setting": "[1]; [5]", "value": 0.04, "unit": "%"},
      {"measurement": "EtOH v/v %", "setting": "[1]; [5]", "value": 15.49, "unit": "v/v %"},
      {"measurement": "Glucose %", "setting": "[1]; [5]", "value": 0.30, "unit": "%"},
      {"measurement": "Lactic %", "setting": "[1]; [5]", "value": 0.57, "unit": "%"},
      {"measurement": "Acetic %", "setting": "[1]; [6]", "value": "0.05% and 0.04% and 0.03%"},
      {"measurement": "Glucose %", "setting": "[1]; [6]", "value": "0.26% and 0.35% and 0.29% and 0.32% and 0.30% and 0.33% and 0.25%"},
      {"measurement": "inhibition of growth of the 'industry normal' bacteria", "setting": "[2]; at 0.5 ppm, as per table 1", "value": "did not seem to inhibit the growth"},
      {"measurement": "effectiveness against Lactobacillus fermentum", "setting": "[2]; dosage of above 1 ppm, compared with Penicillin G Procaine", "value": "comparable effectiveness as Penicillin G Procaine"},
      {"measurement": "concentration from which effective against Lactobacillus fermentum", "setting": "[2]; industry standard L. fermentum isolate, MRS broth, 33° C., read at 24 and 48 hours", "value": "> 0.5", "unit": "ppm"}
    ]}
  ]
}
